This is an account of results in patent publication US20230129359A1, “MUSCARINIC RECEPTOR 4 ANTAGONISTS AND METHODS OF USE” (Neurocrine Biosciences, Inc., priority 2020, published 2023).

A value given as a limit tells only on which side of the number the result lay.

For this experiment, the target named is T1, human M4 receptor (Homo sapiens, UniProt P08173).
T1 construct: expressed in transfected cells; host or cells: CHO cells
T1 sequence (P08173 1-479): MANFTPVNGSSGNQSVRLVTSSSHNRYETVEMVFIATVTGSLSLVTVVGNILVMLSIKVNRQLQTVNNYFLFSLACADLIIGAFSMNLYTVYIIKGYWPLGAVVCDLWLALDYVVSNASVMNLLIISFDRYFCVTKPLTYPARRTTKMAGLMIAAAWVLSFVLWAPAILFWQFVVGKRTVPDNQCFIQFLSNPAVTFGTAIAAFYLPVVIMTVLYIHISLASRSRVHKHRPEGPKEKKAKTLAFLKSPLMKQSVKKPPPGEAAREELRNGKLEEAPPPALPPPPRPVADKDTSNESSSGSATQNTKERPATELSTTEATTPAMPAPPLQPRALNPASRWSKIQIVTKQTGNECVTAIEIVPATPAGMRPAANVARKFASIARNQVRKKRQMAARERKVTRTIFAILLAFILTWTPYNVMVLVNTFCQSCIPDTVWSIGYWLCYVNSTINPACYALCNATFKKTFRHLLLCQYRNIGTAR
Briefly: Radioligand ([3H]N-methylscopolamine) binding assay, membranes from CHO cells expressing human M4 receptor. The settings on record: Ki against human M4 receptor; membranes from CHO cells; tritiated N-methylscopolamine 1.5 nM; read-out: K. Put shortly: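 Competition binding used CHO-cell membranes expressing human M4 with 1.5 nM [3H]N-methylscopolamine and twelve compound concentrations ([…]). Incubation was 90 minutes at 37 °C in 50 mM HEPES, 100 mM NaCl, 5 mM MgCl2, 1 mM EDTA, pH 7.4. Bound ligand was collected by filtration onto PEI-treated glass fibre for Ki.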
For `C[C@@H]1CN(c2ncc(C(F)(F)F)cn2)C[C@H](C)N1C(=O)NC1CC2(C1)CN(Cc1ccc([N+](=O)[O-])cc1)C2` [Compound 314, (2R,6S)-2,6-dimethyl-N-{2-[(4-nitrophenyl)methyl]-2-azaspiro[3.3]heptan-6-yl}-4-[5-(trifluoromethyl)pyrimidin-2-yl]piperazine-1-carboxamide], the Ki was in the range of 10 to 100 nM.

Take `CC(C)c1ccc(CN2CC3(CC(NC(=O)N4[C@H](C)CN(c5ncc(C(F)(F)F)cn5)C[C@@H]4C)C3)C2)cc1` [Compound 316, (2R,6S)-2,6-dimethyl-N-(2-{[4-(propan-2-yl)phenyl]methyl}-2-azaspiro[3.3]heptan-6-yl)-4-[5-(trifluroomethyl)pyrimidin-2-yl]piperazine-1-carboxamide]: the Ki fell in the range of 10 to 100 nM.

Take `C[C@@H]1CN(c2ncc(C(F)(F)F)cn2)C[C@H](C)N1C(=O)NC1CC2(C1)CN(Cc1ccncc1)C2` [Compound 317, (2R,6S)-2,6-dimethyl-N-[2-(pyridin-4-ylmethyl)-2-azaspiro[3.3]heptan-6-yl]-4-[5-(trifluoromethyl)pyrimidin-2-yl]piperazine-1-carboxamide]: the Ki was 100 to 1000 nM.

As for `C[C@@H]1CN(c2ncc(C(F)(F)F)cn2)C[C@H](C)N1C(=O)NC1CC2(C1)CN(Cc1ccc(O)cc1)C2` [Compound 319, (2R,6S)-N-{2-[(4-hydroxyphenyl)methyl]-2-azaspiro[3.3]heptan-6-yl}-2,6-dimethyl-4-[5-(trifluoromethyl)pyrimidin-2-yl]piperazine-1-carboxamide], the Ki is less than 10 nM.

Take `COC(=O)c1ccc(CN2CC3(CC(NC(=O)N4[C@H](C)CN(c5ncc(C(F)(F)F)cn5)C[C@@H]4C)C3)C2)cc1` [Compound 320, methyl 4-[(6-{[(2R,6S)-2,6-dimethyl-4-[5-(trifluoromethyl)pyrimidin-2-yl]piperazine-1-carbonyl]amino}-2-azaspiro[3.3]heptan-2-yl)methyl]benzoate]: the Ki lay within 100 to 1000 nM.

In the case of `CC(=O)Nc1ccc(CN2CC3(CC(NC(=O)N4[C@H](C)CN(c5ncc(C(F)(F)F)cn5)C[C@@H]4C)C3)C2)cc1` [Compound 321, (2R,6S)-N-{2-[(4-acetamidophenyl)methyl]-2-azaspiro[3.3]heptan-6-yl}-2,6-dimethyl-4-[5-(trifluoromethyl)pyrimidin-2-yl]piperazine-1-carboxamide], the Ki fell in the range of 100 to 1000 nM.

With `C[C@@H]1CN(c2ncc(C(F)(F)F)cn2)C[C@H](C)N1C(=O)NC1CC2(C1)CN(Cc1ccc(OC(F)F)cc1)C2` [Compound 322, (2R,6S)-N-(2-{[4-(difluoromethoxy)phenyl]meth-yl}-2-azaspiro[3.3]heptan-6-yl)-2,6-dimethyl-4-[5-(trifluoromethyl)pyrimidin-2-yl]piperazine-1-carboxamide], the Ki lay within 10 to 100 nM.

For `C[C@@H]1CN(c2ncc(C(F)(F)F)cn2)C[C@H](C)N1C(=O)NC1CC2(C1)CN(Cc1ccc(C(F)(F)F)cc1)C2` [Compound 323, (2R,6S)-2,6-dimethyl-N-(2-{[4-(trifluoromethyl)phen-yl]methyl}-2-aza-spiro[3.3]heptan-6-yl)-4-[5-(trifluoromethyl)pyrimidin-2-yl]piperazine-1-carboxamide], the Ki was in the range of 10 to 100 nM.

With `C[C@@H]1CN(c2ncc(C(F)(F)F)cn2)C[C@H](C)N1C(=O)NC1CC2(C1)CN(Cc1ccc(Cl)cc1)C2` [Compound 325, (2R,6S)-N-{2-[(4-chlorophenyl)methyl]-2-azaspiro[3.3]heptan-6-yl}-2,6-dimethyl-4-[5-(trifluoromethyl)pyrimidin-2-yl]piperazine-1-carboxamide], the Ki is less than 10 nM.

For the compound `C[C@@H]1CN(c2ncc(C(F)(F)F)cn2)C[C@H](C)N1C(=O)NC1CC2(C1)CN(CC13CC4CC(CC(C4)C1)C3)C2` [Compound 327, (2R,6S)-N-[2-(adamantan-1-ylmethyl)-2-azaspiro[3.3]heptan-6-yl]-2,6-dimethyl-4-[5-(trifluoromethyl)pyrimidin-2-yl]piperazine-1-carboxamide], the Ki lay in the range of 10 to 100 nM.

As to `C[C@@H]1CN(c2ncc(C(F)(F)F)cn2)C[C@@H](C)N1C(=O)NC1CC2(C1)CN(Cc1ccc(F)cc1)C2` [Compound 328, (2R,6R)-N-{2-[(4-fluorophenyl)methyl]-2-azaspiro[3.3]heptan-6-yl}-2,6-dimethyl-4-[5-(trifluoromethyl)pyrimidin-2-yl]piperazine-1-carboxamide], the Ki lay within 10 to 100 nM.

On to `C[C@@H]1CN(c2ncc(C#N)cn2)C[C@H](C)N1C(=O)NC1CC2(C1)CN(Cc1ccc(F)cc1)C2` [Compound 330, (2R,6S)-4-(5-cyanopyrimidin-2-yl)-N-{2-[(4-fluorophenyl)methyl]-2-azaspiro[3.3]heptan-6-yl}-2,6-dimethylpiperazine-1-carboxamide], for which the Ki is 100 to 1000 nM.

In the case of `C[C@@H]1CN(c2ncc(C(F)(F)F)cn2)C[C@H](C)N1C(=O)NC1CC2(C1)CN(CC1CC(F)(F)C1)C2` [Compound 333, (2R,6S)-N-{2-[(3,3-difluorocyclobutyl)methyl]-2-azaspiro[3.3]heptan-6-yl}-2,6-dimethyl-4-[5-(trifluoromethyl)pyrimidin-2-yl]piperazine-1-carboxamide], the Ki lay in the range of 100 to 1000 nM.

On to `CC(c1ccccc1)N1CC2(CC(NC(=O)N3[C@H](C)CN(c4ncc(C(F)(F)F)cn4)C[C@@H]3C)C2)C1` (stereo partly drawn) [Compound 334, (2R,6S)-2,6-dimethyl-N-[2-(1-phenylethyl)-2-azaspiro[3.3]heptan-6-yl]-4-[5-(trifluoromethyl)pyrimidin-2-yl]piperazine-1-carboxamide], for which the Ki was less than 10 nM.

For `C[C@@H]1CN(c2ncc(C(F)(F)F)cn2)C[C@H](C)N1C(=O)NC1CC2(C1)CN(Cc1ccccc1O)C2` [Compound 337, (2R,6S)-N-{2-[(2-hydroxyphenyl)methyl]-2-azaspiro[3.3]heptan-6-yl}-2,6-dimethyl-4-[5-(trifluoromethyl)pyrimidin-2-yl]piperazine-1-carboxamide], the Ki fell in the range of 10 to 100 nM.

Take `Cc1ccsc1CN1CC2(CC(NC(=O)N3[C@H](C)CN(c4ncc(C(F)(F)F)cn4)C[C@@H]3C)C2)C1` [Compound 338, (2R,6S)-2,6-dimethyl-N-{2-[(3-methylthiophen-2-yl)methyl]-2-azaspiro[3.3]heptan-6-yl}-4-[5-(trifluoromethyl)pyrimidin-2-yl]piperazine-1-carboxamide]: the Ki was less than 10 nM.

As to `Cc1ccc(CN2CC3(CC(NC(=O)N4[C@H](C)CN(c5ncc(C(F)(F)F)cn5)C[C@@H]4C)C3)C2)s1` [Compound 339, (2R,6S)-2,6-dimethyl-N-{2-[(5-methylthiophen-2-yl)methyl]-2-azaspiro[3.3]heptan-6-yl}-4-[5-(trifluoromethyl)pyrimidin-2-yl]piperazine-1-carboxamide], the Ki was less than 10 nM.

`C[C@@H]1CN(c2ncc(C(F)(F)F)cn2)C[C@H](C)N1C(=O)NC1CC2(C1)CN(Cc1ccc(Cl)s1)C2` [Compound 340, (2R,6S)-N-{2-[(5-chlorothiophen-2-yl)methyl]-2-azaspiro[3.3]heptan-6-yl}-2,6-dimethyl-4-[5-(trifluoromethyl)pyrimidin-2-yl]piperazine-1-carboxamide]: the Ki was less than 10 nM.

Take `C[C@@H]1CN(c2ncc(C(F)(F)F)cn2)C[C@H](C)N1C(=O)OC1(C(F)F)CC2(CN(Cc3ccccc3)C2)C1` [Compound 341, 2-benzyl-6-(difluoromethyl)-2-azaspiro[3.3]heptan-6-yl (2R,6S)-2,6-dimethyl-4-[5-(trifluoromethyl)pyrimidin-2-yl]piperazine-1-carboxylate]: the Ki lay in the range of 10 to 100 nM.
